Our source for the DC50 values is patent US8003649B2 (AstraZeneca AB, priority 2007, dated 2011).

Structures are written as SMILES.

For this test, the target named is T1, Androgen Receptor (AR) (Homo sapiens, UniProt P10275, T878A).
T1 construct: cell based immuno-fluorescence assay using the LNCaP prostate epithelial cell line; endogenous in cells; host or cells: LNCaP clone FGC (ATCC CRL-1740)
T1 sequence (P10275 1-920 T878A): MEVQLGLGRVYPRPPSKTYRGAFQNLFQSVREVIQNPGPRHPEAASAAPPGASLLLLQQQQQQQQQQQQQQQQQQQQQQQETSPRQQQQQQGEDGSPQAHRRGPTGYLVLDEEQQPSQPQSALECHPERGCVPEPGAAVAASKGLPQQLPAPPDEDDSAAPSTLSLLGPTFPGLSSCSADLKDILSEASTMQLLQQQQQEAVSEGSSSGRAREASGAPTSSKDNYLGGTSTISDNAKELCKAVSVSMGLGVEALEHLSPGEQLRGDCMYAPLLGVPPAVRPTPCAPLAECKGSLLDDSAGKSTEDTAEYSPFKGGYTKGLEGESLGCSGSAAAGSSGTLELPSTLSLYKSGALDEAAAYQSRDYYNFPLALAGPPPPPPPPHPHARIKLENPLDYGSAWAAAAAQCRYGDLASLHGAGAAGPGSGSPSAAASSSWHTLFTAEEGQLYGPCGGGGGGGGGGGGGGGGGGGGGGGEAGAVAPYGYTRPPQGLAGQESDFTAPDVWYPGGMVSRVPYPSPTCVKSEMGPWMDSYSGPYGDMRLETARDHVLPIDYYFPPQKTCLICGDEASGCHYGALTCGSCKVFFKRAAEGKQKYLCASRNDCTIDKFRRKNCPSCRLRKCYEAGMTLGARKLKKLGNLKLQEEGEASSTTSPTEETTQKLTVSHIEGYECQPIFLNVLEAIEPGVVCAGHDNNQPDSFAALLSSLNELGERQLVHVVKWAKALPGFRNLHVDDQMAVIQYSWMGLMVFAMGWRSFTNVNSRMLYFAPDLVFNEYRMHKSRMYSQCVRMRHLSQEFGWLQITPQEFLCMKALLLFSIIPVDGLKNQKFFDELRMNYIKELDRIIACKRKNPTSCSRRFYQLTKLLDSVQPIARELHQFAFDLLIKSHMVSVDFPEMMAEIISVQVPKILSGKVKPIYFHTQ
Description: LNCaP Androgen Receptor Down-regulation Cell Assay (immunofluorescence end point). It counts as cell-based. Conditions: LNCaP prostate carcinoma cells, compound incubation 20-22 hours, 50% reduction of the AR signal; read-out: Androgen Receptor Down-regulation Assay (a) IC50/μM. The method, boiled down: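 LNCaP cells in medium with 5% charcoal-stripped FBS were plated overnight, then treated with a compound dilution series for 20-22 h at 37° C. After fixation, permeabilisation and immunostaining, AR-associated green fluorescence was quantified by laser-scanning microplate cytometry; AR down-regulation expressed as IC50 from fitted dose-response curves.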
With `NC(=O)COc1ccc(CN2CCN(c3ccc4nnc(C(F)(F)F)n4n3)CC2)cc1` [Example 153, 2-[4-[[4-[3-(trifluoromethyl)-[1,2,4]triazolo[4,3-b]pyridazin-6-yl]piperazin-1-yl]methyl]phenoxy]acetamide], the DC50 came to 7.9 µM.
On to `N#CCOc1ccc(CN2CCN(c3ccc4nnc(C(F)(F)F)n4n3)CC2)cc1` [Example 154, 2-[4-[[4-[3-(trifluoromethyl)-[1,2,4]triazolo[4,3-b]pyridazin-6-yl]piperazin-1-yl]methyl]phenoxy]acetonitrile], for which the DC50 worked out at 1.6 µM.
In the case of `CCCCOc1cccc(CN2CCN(c3ccc4nnc(C(F)(F)F)n4n3)CC2)c1` [Example 157, 6-[4-[(3-butoxyphenyl)methyl]piperazin-1-yl]-3-(trifluoromethyl)-[1,2,4]triazolo[4,3-b]pyridazine], the DC50 is 2.4 µM.
The result for `CCCc1ccc(CN2CCN(c3ccc4nnc(C(F)(F)F)n4n3)CC2)cc1` [Example 158, 6-[4-[(4-propylphenyl)methyl]piperazin-1-yl]-3-(trifluoromethyl)-[1,2,4]triazolo[4,3-b]pyridazine] reads 3 µM.
The result for `CCc1ccc(CN2CCN(c3ccc4nnc(C(F)(F)F)n4n3)CC2)cc1` [Example 159, 6-[4-[(4-ethylphenyl)methyl]piperazin-1-yl]-3-(trifluoromethyl)-[1,2,4]triazolo[4,3-b]pyridazine] reads 1.4 µM; that for `FC(F)(F)c1nnc2ccc(N3CCN(Cc4ccc(N5CCOCC5)cc4)CC3)nn12` [Example 160, 6-[4-[(4-morpholin-4-ylphenyl)methyl]piperazin-1-yl]-3-(trifluoromethyl)-[1,2,4]triazolo[4,3-b]pyridazine], 6.6 µM.
With `FC(F)Oc1ccc(CN2CCN(c3ccc4nnc(C(F)(F)F)n4n3)CC2)cc1` [Example 161, 6-[4-[[4-(difluoromethoxy)phenyl]methyl]piperazin-1-yl]-3-(trifluoromethyl)-[1,2,4]triazolo[4,3-b]pyridazine] the figure was 1.4 µM; with `FC(F)Oc1cccc(CN2CCN(c3ccc4nnc(C(F)(F)F)n4n3)CC2)c1` [Example 162, 6-[4-[[3-(difluoromethoxy)phenyl]methyl]piperazin-1-yl]-3-(trifluoromethyl)-[1,2,4]triazolo[4,3-b]pyridazine], 1 µM; with `CCOC(=O)/C=C/c1ccc(CN2CCN(c3ccc4nnc(C(F)(F)F)n4n3)CC2)cc1` [Example 163, ethyl (E)-3-[4-[[4-[3-(trifluoromethyl)-[1,2,4]triazolo[4,3-b]pyridazin-6-yl]piperazin-1-yl]methyl]phenyl]prop-2-enoate], 3.6 µM.
In the case of `CS(=O)(=O)c1ccccc1CN1CCCN(c2ccc3nnc(C(F)(F)F)n3n2)CC1` [Example 164, 6-[4-[(2-methylsulfonylphenyl)methyl]-1,4-diazepan-1-yl]-3-(trifluoromethyl)-[1,2,4]triazolo[4,3-b]pyridazine], the DC50 amounted to 1.7 µM.
With `CS(=O)(=O)c1cccc(CN2CCCN(c3ccc4nnc(C(F)(F)F)n4n3)CC2)c1` [Example 165, 6-[4-[(3-methylsulfonylphenyl)methyl]-1,4-diazepan-1-yl]-3-(trifluoromethyl)-[1,2,4]triazolo[4,3-b]pyridazine] the figure was 1.7 µM; with `COc1ccccc1CN1CCCN(c2ccc3nnc(C(F)(F)F)n3n2)CC1` [Example 167, 6-[4-[(2-methoxyphenyl)methyl]-1,4-diazepan-1-yl]-3-(trifluoromethyl)-[1,2,4]triazolo[4,3-b]pyridazine], 2.4 µM; with `FC(F)(F)c1ccc(CN2CCCN(c3ccc4nnc(C(F)(F)F)n4n3)CC2)cc1` [Example 168, 3-(trifluoromethyl)-6-[4-[[4-(trifluoromethyl)phenyl]methyl]-1,4-diazepan-1-yl]-[1,2,4]triazolo[4,3-b]pyridazine], 1.6 µM.
The result for `Fc1ccccc1CN1CCCN(c2ccc3nnc(C(F)(F)F)n3n2)CC1` [Example 169, 6-[4-[(2-fluorophenyl)methyl]-1,4-diazepan-1-yl]-3-(trifluoromethyl)-[1,2,4]triazolo[4,3-b]pyridazine] reads 0.92 µM; that for `N#Cc1ccc(CN2CCCN(c3ccc4nnc(C(F)(F)F)n4n3)CC2)cc1` [Example 170, 4-[[4-[3-(trifluoromethyl)-[1,2,4]triazolo[4,3-b]pyridazin-6-yl]-1,4-diazepan-1-yl]methyl]benzonitrile], 0.61 µM.
With `N#Cc1cccc(CN2CCCN(c3ccc4nnc(C(F)(F)F)n4n3)CC2)c1` [Example 171, 3-[[4-[3-(trifluoromethyl)-[1,2,4]triazolo[4,3-b]pyridazin-6-yl]-1,4-diazepan-1-yl]methyl]benzonitrile] the figure was 0.62 µM; with `Fc1cccc(CN2CCCN(c3ccc4nnc(C(F)(F)F)n4n3)CC2)c1` [Example 172, 6-[4-[(3-fluorophenyl)methyl]-1,4-diazepan-1-yl]-3-(trifluoromethyl)-[1,2,4]triazolo[4,3-b]pyridazine], 0.81 µM; with `FC(F)(F)c1nnc2ccc(N3CCCN(Cc4cccc(Cl)c4)CC3)nn12` [Example 175, 6-[4-[(3-chlorophenyl)methyl]-1,4-diazepan-1-yl]-3-(trifluoromethyl)-[1,2,4]triazolo[4,3-b]pyridazine], 0.68 µM.
Consider `FC(F)(F)c1nnc2ccc(N3CCCN(Cc4ccc(Cl)cc4)CC3)nn12` [Example 176, 6-[4-[(4-chlorophenyl)methyl]-1,4-diazepan-1-yl]-3-(trifluoromethyl)-[1,2,4]triazolo[4,3-b]pyridazine], for which the DC50 came to 0.85 µM.
Regarding `Fc1ccc(CN2CCCN(c3ccc4nnc(C(F)(F)F)n4n3)CC2)cc1` [Example 177, 6-[4-[(4-fluorophenyl)methyl]-1,4-diazepan-1-yl]-3-(trifluoromethyl)-[1,2,4]triazolo[4,3-b]pyridazine], the DC50 is 0.77 µM.
On to `Cc1cccc(CN2CCCN(c3ccc4nnc(C(F)(F)F)n4n3)CC2)c1` [Example 178, 6-[4-[(3-methylphenyl)methyl]-1,4-diazepan-1-yl]-3-(trifluoromethyl)-[1,2,4]triazolo[4,3-b]pyridazine], for which the DC50 was found to be 0.88 µM.
As to `FC(F)(F)c1cccc(CN2CCCN(c3ccc4nnc(C(F)(F)F)n4n3)CC2)c1` [Example 179, 3-(trifluoromethyl)-6-[4-[[3-(trifluoromethyl)phenyl]methyl]-1,4-diazepan-1-yl]-[1,2,4]triazolo[4,3-b]pyridazine], the DC50 was determined as 0.59 µM.
The result for `COc1ccc(CN2CCCN(c3ccc4nnc(C(F)(F)F)n4n3)CC2)cc1` [Example 181, 6-[4-[(4-methoxyphenyl)methyl]-1,4-diazepan-1-yl]-3-(trifluoromethyl)-[1,2,4]triazolo[4,3-b]pyridazine] reads 2.1 µM; that for `FC(F)(F)c1cccc(CN2CCN(c3ccc4nnc(C(F)(F)F)n4c3)CC2)c1` [Example 185, 3-(trifluoromethyl)-6-[4-[[3-(trifluoromethyl)phenyl]methyl]piperazin-1-yl]-[1,2,4]triazolo[4,3-a]pyridine], 0.68 µM; that for `FC(F)(F)c1ccc(CN2CCN(c3ccc4nnc(C(F)(F)F)n4c3)CC2)cc1` [Example 186, 3-(trifluoromethyl)-6-[4-[[4-(trifluoromethyl)phenyl]methyl]piperazin-1-yl]-[1,2,4]triazolo[4,3-a]pyridine], 2.8 µM.
The result for `N#Cc1ccc(CN2CCN(c3ccc4nnc(C(F)(F)F)n4c3)CC2)cc1` [Example 187, 4-[[4-[3-(trifluoromethyl)-[1,2,4]triazolo[4,3-a]pyridin-6-yl]piperazin-1-yl]methyl]benzonitrile] reads 4.7 µM; that for `N#Cc1cccc(CN2CCN(c3ccc4nnc(C(F)(F)F)n4c3)CC2)c1` [Example 188, 3-[[4-[3-(trifluoromethyl)-[1,2,4]triazolo[4,3-a]pyridin-6-yl]piperazin-1-yl]methyl]benzonitrile], 2.2 µM; that for `Fc1cccc(CN2CCN(c3ccc4nnc(C(F)(F)F)n4c3)CC2)c1` [Example 189, 6-[4-[(3-fluorophenyl)methyl]piperazin-1-yl]-3-(trifluoromethyl)-[1,2,4]triazolo[4,3-a]pyridine], 1.1 µM.
On to `FC(F)(F)c1nnc2ccc(N3CCN(Cc4ccc(Cl)cc4)CC3)cn12` [Example 190, 6-[4-[(4-chlorophenyl)methyl]piperazin-1-yl]-3-(trifluoromethyl)-[1,2,4]triazolo[4,3-a]pyridine], for which the DC50 worked out at 0.79 µM.
